Paper PMC10156783, “Structural basis for catalysis of human choline/ethanolamine phosphotransferase 1” (Nature Communications, 2023)

Tests used:
[1] = biological target: T1, hCEPT1 (human choline/ethanolamine phosphotransferase 1) (Homo sapiens, UniProt Q9Y6K0); settings: co-substrate diacylglycerol in cholate/POPC micelles; Mg2+ 20 mM; pH 8.0; 37 °C
T1 construct: gene CEPT1
T1 sequence (Q9Y6K0 1-416): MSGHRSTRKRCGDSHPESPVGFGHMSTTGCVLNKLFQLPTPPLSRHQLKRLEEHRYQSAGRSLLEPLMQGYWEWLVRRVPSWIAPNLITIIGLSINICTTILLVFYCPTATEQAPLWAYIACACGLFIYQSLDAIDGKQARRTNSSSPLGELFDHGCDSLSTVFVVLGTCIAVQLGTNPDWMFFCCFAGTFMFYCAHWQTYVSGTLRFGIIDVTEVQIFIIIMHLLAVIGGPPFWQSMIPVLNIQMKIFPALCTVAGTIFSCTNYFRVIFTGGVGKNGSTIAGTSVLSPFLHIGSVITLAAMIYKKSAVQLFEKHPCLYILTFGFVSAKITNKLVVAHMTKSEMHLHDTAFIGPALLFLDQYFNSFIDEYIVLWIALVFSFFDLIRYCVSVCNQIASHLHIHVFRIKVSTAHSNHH

[2] = biological target: T1, hCEPT1 (human choline/ethanolamine phosphotransferase 1); test: isothermal titration calorimetry; cryo-EM structure of the complex; settings: read-out: binding affinity
[3] = biological target: the molecule itself; test: cryo-EM structure; purified CEPT1 at about 15 mg/ml in 25 mM Tris pH 8.0, 150 mM NaCl, 0.005% GDN; alone (3.7 Å) and with 10 mM CDP-choline (3.8 Å); C2 symmetry applied, a similar map with C1

## NCCOP(=O)(O)OP(=O)(O)OC[C@H]1O[C@@H](n2ccc(N)nc2=O)[C@H](O)[C@@H]1O [CDP-ethanolamine]
[1]
  HPLC assay of CMP release: CMP release was approximately doubled when CDP-choline was used as the substrate compared with CDP-ethanolamine

## C[N+](C)(C)CCOP(=O)(O)OP(=O)([O-])OC[C@H]1O[C@@H](n2ccc(N)nc2=O)[C@H](O)[C@@H]1O [CDP-choline]
[2]
  Kd: 46 µM

B1: human choline/ethanolamine phosphotransferase 1 (CEPT1), full length (enzyme, UniProt Q9Y6K0 1-416, looked up)
chain: MSGHRSTRKRCGDSHPESPVGFGHMSTTGCVLNKLFQLPTPPLSRHQLKRLEEHRYQSAGRSLLEPLMQGYWEWLVRRVPSWIAPNLITIIGLSINICTTILLVFYCPTATEQAPLWAYIACACGLFIYQSLDAIDGKQARRTNSSSPLGELFDHGCDSLSTVFVVLGTCIAVQLGTNPDWMFFCCFAGTFMFYCAHWQTYVSGTLRFGIIDVTEVQIFIIIMHLLAVIGGPPFWQSMIPVLNIQMKIFPALCTVAGTIFSCTNYFRVIFTGGVGKNGSTIAGTSVLSPFLHIGSVITLAAMIYKKSAVQLFEKHPCLYILTFGFVSAKITNKLVVAHMTKSEMHLHDTAFIGPALLFLDQYFNSFIDEYIVLWIALVFSFFDLIRYCVSVCNQIASHLHIHVFRIKVSTAHSNHH
notes: residues 28-407 modelled in each protomer; Homodimer in the cryo-EM structures; membrane protein in GDN detergent; No removal of the tags is described; also called hCEPT1; CEPT1-A; source: FreeStyle 293-F suspension cells, transiently transfected, purified (anti-FLAG M2 resin, NTA resin, SEC in 0.005% GDN)
[3]
  stoichiometry N: 2
